# Literature values in patent US20200030265A1, “ANTI[…] AND USES THEREOF” (CSP PHARMA, INC., priority 2017, published 2020).
# Test system: ASDs mouse model
# Conditions: includes core social deficits, sensorimotor coordination, Purkinje cell loss, P2Y2 and P2X7 expression (Naviaux et al. 2013)
structure (smiles),measurement,value
"Cc1ccc(C(=O)Nc2ccc(S(=O)(=O)O)c3cc(S(=O)(=O)O)cc(S(=O)(=O)O)c23)cc1NC(=O)c1cccc(NC(=O)Nc2cccc(C(=O)Nc3cc(C(=O)Nc4ccc(S(=O)(=O)O)c5cc(S(=O)(=O)O)cc(S(=O)(=O)O)c45)ccc3C)c2)c1 [suramin, Suramin]",multisystem abnormalities that defined the ASD-like phenotype corrected,16
